Results as given in US10689357B2, “N-acylethanolamine hydrolyzing acid amidase (NAAA) inhibitors and use thereof” (Northeastern University, priority 2018, dated 2020).
Structures can show the parent of a compound that is named as a salt.

Molecular target: hNAAA (Homo sapiens (Human), UniProt Q02083)
Experiment: NAAA fluorescence-based inhibition assay with PAMCA substrate
Type: biochemical
Conditions: purified activated hNAAA, PAMCA 5 μM, pH 4.5, 37° C.
Text: In order to have an assay method more conducive to high-throughput screening than those published for measuring the NAE hydrolyzing activity of NAAA [Proc. Natl. Acad. Sci. USA. 2009; 106(49):20966-71], the fluorogenic PEA analog N-(4-methyl coumarin)palmitamide (PAMCA), which is hydrolyzed to fluorescent 7-amino-4-methyl coumarin (AMC) and palmitic acid, was developed. [J. Proteome Res. 2012; 11(2):972-981], [PloS One. 2012; 7: e43877]. For three point concentration inhibition assays with hNAAA the following procedure was used. Purified activated NAAA (final concentration of 0.25 μg/mL) was incubated in assay buffer (100 mM citrate-phosphate buffer, pH 4.5, 3 mM DTT, 0.1% Triton X-100, 0.05% BSA, and 150 mM NaCl) made up to a total volume of 180 μL, followed by addition of the compound dissolved in 10 μL DMSO (along with DMSO neat for the control sample) with the final concentrations for each compound of 100, 10, and 1 μM, in triplicate on a 96 well plate. These samples were allowed to incubate for 15 min at room temperature and then 10 μL of a PAMCA stock solution in DMSO (final PAMCA concentration [5 μM]) was added. After 5 minutes of agitation on a shaking plate, the reaction was allowed to proceed at 37° C. for 120 minutes, with fluorescence readings taken every 10 minutes at a wavelength of 460 nm (using an excitation wavelength of 360 nm) on a Synergy HT Plate Reader using Gen5 software from Bio-Tek. The enzyme activity was calculated by converting the relative fluorescence units to AMC formed, using a standard curve of AMC.
For compounds that inhibit hNAAA in range IC50<1 μM, full inhibition curves using eight different concentrations of inhibitor (8 point assay) were generated. The assay procedure used was the same as the three point assay. For ostensibly covalent compounds (as observed by a significant decrease in the slope of a plot of fluorescence vs. time in three point screen), samples were allowed to incubate for 2 hours at 37° C., instead of 15 minutes, before addition of 10 μL of a PAMCA stock solution in DMSO for a final PAMCA concentration of 5 μM. After 5 minutes of agitation on a shaking plate, the reaction was allowed to proceed at 37° C. for 120 minutes. Inhibition constants were calculated using pro Fit software (Quantum Soft, Uetikon am See, Switzerland) and a Levenberg-Marquardt algorithm.

hNAAA, sequence (Q02083 29-125): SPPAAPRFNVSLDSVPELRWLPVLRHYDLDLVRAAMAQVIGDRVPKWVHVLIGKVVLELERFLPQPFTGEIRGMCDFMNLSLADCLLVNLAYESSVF
hNAAA, sequence (Q02083 126-359): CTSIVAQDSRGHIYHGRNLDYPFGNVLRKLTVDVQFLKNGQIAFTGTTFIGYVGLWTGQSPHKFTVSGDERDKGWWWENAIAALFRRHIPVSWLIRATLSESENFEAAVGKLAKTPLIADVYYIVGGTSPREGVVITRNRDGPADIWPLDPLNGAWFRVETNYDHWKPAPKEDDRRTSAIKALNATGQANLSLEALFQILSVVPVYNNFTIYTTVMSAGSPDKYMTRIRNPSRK

Compound | IC50 [µM]
CC[C@H]1CC[C@H](c2ccc(C(=O)N[C@H]3C[C@@H](N=C=S)C3)cc2)CC1 [Example 11, 4-((1s, 4s)-4-Ethylcyclohexyl)-N-((1r, 3R)-3-isothiocyanatocyclobutyl) benzamide] | > 1
N#Cc1ccc(-c2ccc(C(=O)N[C@H]3C[C@@H](N=C=S)C3)nc2)cc1 [Example 23, 5-(4-cyanophenyl)-N-((1r, 3r)-3-Isothiocyanatocyclobutyl)picolinamide] | 0.11 to 1
COc1cccc(-c2ccc(C(=O)N[C@H]3C[C@@H](N=C=S)C3)cc2)c1 [Example 2, N-((1r, 3r)-3-Isothiocyanatocyclobutyl)-3′-methoxy-[1,1′-biphenyl]-4-carboxamide] | 0.11 to 1
COc1ccc(-c2cc(C(=O)N[C@H]3C[C@@H](N=C=S)C3)on2)cc1 [Example 16, N-((1r, 3r)-3-Isothiocyanatocyclobutyl)-3-(4-methoxyphenyl)isoxazole-5-carboxamide] | 0.01 to 0.1
O=C(N[C@H]1C[C@@H](N=C=S)C1)c1ccc(Oc2cccnc2)cc1 [Example 6, N-((1r, 3r)-3-Isothiocyanatocyclobutyl)-4-(pyridin-3-yloxy)benzamide] | 0.11 to 1
COc1ccc(C2CC2C(=O)N[C@H]2C[C@@H](N=C=S)C2)cc1 (some centres unmarked) [Example 14, N-((1r, 3r)-3-Isothiocyanatocyclobutyl)-2-(4-methoxyphenyl)cyclopropane-1-carboxamide] | 0.01 to 0.1
COc1ccc(-c2ccc(C(=O)N[C@]34C[C@](N=C=S)(C3)C4)c(F)c2)cc1 [Example 9, 3-Fluoro-N-(3-isothiocyanatobicyclo[1.1.1]pentan-1-yl)-4′-methoxy-[1,1′-biphenyl]-4-carboxamide] | > 1
COc1ccc(-c2ccc(C(=O)N[C@H]3C[C@@H](N=C=S)C3)nc2)cc1 [Example 18, N-((1s, 3 s)-3-Isothiocyanatocyclobutyl)-5-(4-methoxyphenyl)picolinamide] | 0.01 to 0.1
COc1ccc(-c2ccc(S(=O)(=O)N[C@H]3C[C@@H](N=C=S)C3)cc2)cc1 [Example 25, N-((1r, 3r)-3-Isothiocyanatocyclobutyl)-4′-methoxy-[1,1′-biphenyl]-4-sulfonamide] | 0.01 to 0.1
COc1ccc(-c2ccc(S(=O)(=O)N[C@H]3C[C@@H](N=C=S)C3)cc2)cc1F [Example 30, 3′-Fluoro-N-((1s,3s)-3-isothiocyanatocyclobutyl)-4′-methoxy-[1,1′-biphenyl]-4-sulfonamide] | 0.01 to 0.1
COc1ccc(-c2ccc(C(=O)N[C@H]3C[C@@H](N=C=S)C3)nc2)cc1F [Example 19, 5-(3-Fluoro-4-methoxyphenyl)-N-((1r, 3r)-3-isothiocyanatocyclobutyl) picolinamide] | 0.01 to 0.1
O=C(N[C@H]1C[C@@H](N=C=S)C1)c1ccc(N2CCOCC2)cc1 [Example 5, N-((1r, 3r)-3-Isothiocyanatocyclobutyl)-4-morpholinobenzamide] | > 1
COc1ccc(Oc2ccc(C(=O)N[C@H]3C[C@H](N=C=S)C3)cc2)cc1 [Example 4, N-((1r, 3r)-3-Isothiocyanatocyclobutyl)-4-(4-methoxyphenoxy)benzamide] | > 1
COc1ccc(-c2ccc(C(=O)O[C@H]3C[C@@H](N=C=S)C3)c(F)c2)cc1 [Example 8, (1r, 3r)-3-Isothiocyanatocyclobutyl 3-fluoro-4′-methoxy-[1,1′-biphenyl]-4-carboxylate] | 0.01 to 0.1
COc1ccc([C@H]2C[C@@H](C(=O)N[C@H]3C[C@@H](N=C=S)C3)C2)cc1 [Example 41, (1s,3S)—N-((1s,3S)-3-Isothiocyanatocyclobutyl)-3-(4-methoxyphenyl) cyclobutane-1-carboxamide] | 0.01 to 0.1
COc1ccc(-c2cnc(C(=O)N[C@H]3C[C@@H](N=C=S)C3)c(N3CCC3)c2)cc1 [Example 38, 3-(Azetidin-1-yl)-N-((1s,3s)-3-isothiocyanatocyclobutyl)-5-(4-methoxyphenyl)picolinamide] | 0.11 to 1
COc1ccc(-c2ccc(C(=O)N[C@H]3C[C@@H](N=C=S)C3)c(F)c2)cc1 [Example 7, 3-Fluoro-N-((1r, 3r)-3-isothiocyanatocyclobutyl)-4′-methoxy-[1,1′-biphenyl]-4-carboxamide] | 0.01 to 0.1
COc1ccc(CCC(=O)N[C@H]2C[C@@H](N=C=S)C2)cc1 [Example 12, N-((1r, 3r)-3-Isothiocyanatocyclobutyl)-3-(4-methoxyphenyl)propanamide] | 0.11 to 1

Compound | IC50 [µM]
COc1ccc(-c2ccc(C(=O)O[C@H]3C[C@@H](N=C=S)C3)c(F)c2)cc1F [Example 28, (1s,3s)-3-isothiocyanatocyclobutyl 3,3′-difluoro-4′-methoxy-[1,1′-biphenyl]-4-carboxylate] | 0.01 to 0.1
COc1ccc(-c2ccc(OC(=O)N[C@H]3C[C@@H](N=C=S)C3)cc2)cc1 [Example 33, 4′-Methoxy-[1,1′-biphenyl]-4-yl ((1s,3s)-3-isothiocyanatocyclobutyl)carbamate] | 0.01 to 0.1
COc1ccc(-c2ccc(C(C)O[C@H]3C[C@@H](N=C=S)C3)nc2)cc1F (some centres unmarked) [Example 40, 5-(3-Fluoro-4-methoxyphenyl)-2-(1-((1s,3s)-3-isothiocyanatocyclobutoxy)ethyl)pyridine] | 0.11 to 1
COc1cccc(-c2ccc(C(=O)O[C@H]3C[C@@H](N=C=S)C3)cc2)c1 [Example 3, (1r, 3r)-3-Isothiocyanatocyclobutyl 3′-methoxy-[1,1′-biphenyl]-4-carboxylate] | 0.01 to 0.1
COc1ccc(C23CC(C(=O)N[C@H]4C[C@@H](N=C=S)C4)(C2)C3)cc1 [Example 37, N-((1s,3s)-3-isothiocyanatocyclobutyl)-3-(4-methoxyphenyl)bicyclo[1.1.1]pentane-1-carboxamide] | 0.11 to 1
COc1ccc(-c2ccc(C(=O)N[C@H]3C[C@@H](N=C=S)C3)c(F)c2)cc1F [Example 29, 3,3′-Difluoro-N-((1s,3s)-3-isothiocyanatocyclobutyl)-4′-methoxy-[1,1′-biphenyl]-4-carboxamide] | 0.01 to 0.1
COc1ccc2cc(C(=O)N[C@H]3C[C@@H](N=C=S)C3)ccc2c1 [Example 10, N-((1s, 3 s)-3-Isothiocyanatocyclobutyl)-6-methoxy-2-naphthamide] | > 1
COc1ccc(-c2ccc(C(C)O[C@H]3C[C@@H](N=C=S)C3)nc2)cc1 (some centres unmarked) [Example 39, 2-(1-((1s,3s)-3-Isothiocyanatocyclobutoxy)ethyl)-5-(4-methoxyphenyl)pyridine] | 0.01 to 0.1
COc1cccc(-c2ccc(C(=O)N[C@H]3C[C@@H](N=C=S)C3)nc2)c1 [Example 20, N-((1r, 3r)-3-Isothiocyanatocyclobutyl)-5-(3-methoxyphenyl)picolinamide] | 0.11 to 1
(1r, 3r)-3-Isothiocyanatocyclobutyl 5-(4-methoxyphenyl)picolinate [Example 21] | 0.01 to 0.1
COc1ccc(N2CC(C(=O)N[C@H]3C[C@@H](N=C=S)C3)C2)cc1 [Example 36, N-((1s,3s)-3-Isothiocyanatocyclobutyl)-1-(4-methoxyphenyl)azetidine-3-carboxamide] | 0.11 to 1
COc1ccc(/C=C/C(=O)N[C@H]2C[C@@H](N=C=S)C2)cc1 [Example 1, (E)-N-((1s, 3s)-3-Isothiocyanatocyclobutyl)-3-(4-methoxyphenyl)acrylamide] | > 1
COc1ccc(-c2ccc(CO[C@H]3C[C@@H](N=C=S)C3)nc2)cc1F [Example 43, 5-(3-Fluoro-4-methoxyphenyl)-2-(((1s,3s)-3-isothiocyanatocyclobutoxy)methyl)pyridine citrate] | 0.01 to 0.1
COc1ccc(-c2cnc(C(=O)N[C@H]3C[C@@H](N=C=S)C3)cn2)cc1 [Example 22, N-((1r, 3r)-3-Isothiocyanatocyclobutyl)-5-(4-methoxyphenyl)pyrazine-2-carboxamide] | 0.11 to 1
COc1ccc(Nc2ccc(C(=O)N[C@H]3C[C@@H](N=C=S)C3)nc2)cc1 [Example 24, N-((1r, 3r)-3-Isothiocyanatocyclobutyl)-5-((4-methoxyphenyl)amino) picolinamide] | > 1
COc1ccc(-c2ccc(S(=O)(=O)N[C@H]3C[C@@H](N=C=S)C3)nc2)cc1 [Example 26, N-((1s, 3s)-3-Isothiocyanatocyclobutyl)-5-(4-methoxyphenyl)pyridine-2-sulfonamide] | 0.01 to 0.1
COc1ccc(-c2ccc(S(=O)(=O)O[C@H]3C[C@@H](N=C=S)C3)cc2)cc1F [Example 31, (1s,3s)-3-Isothiocyanatocyclobutyl 3′-fluoro-4′-methoxy-[1,1′-biphenyl]-4-sulfonate] | 0.01 to 0.1
